This note sets out measurements from patent publication US20020147230A1, “Aminal Diones as potassium channel openers” (priority 2001, published 2002).

Like-named read-outs stand apart in the source and are kept apart here.

For data set [1], the system named is primary cultured guinea-pig urinary bladder (GPB) cells. Nature of the data set: Membrane hyperpolarization (MHP) assay, DiBAC(4)3 / FLIPR. Type of data set: cell-based. The note with it: for EC50: membrane hyperpolarization in guinea-pig bladder cells. The method, then: Compounds were evaluated for potassium channel opening activity using primary cultured guinea-pig urinary bladder (GPB) cells.
For the preparation of urinary bladder smooth muscle cells, urinary bladders were removed from male guinea-pigs (Hartley, Charles River, Wilmington, Mass.) weighing 300-400 g and placed in ice-cold Ca^2+-free Krebs solution (composition, mM: KCl, 2.7; KH2PO4, 1.5; NaCl, 75; Na2HPO4, 9.6; Na2HPO4.7H2O, 8; MgSO4, 2; glucose, 5; HEPES, 10; pH 7.4). Cells were isolated by enzymatic dissociation as previously described with minor modifications (Klockner and Isenberg, Pflugers Arch. (1985), 405, 329-339), hereby incorporated by reference. The bladder was cut into small sections and incubated in 5 mL of the Kreb's solution containing 1 mg/mL collagenase (Sigma, St. Louis, Mont.) and 0.2 mg/mL pronase (Calbiochem, La Jolla, Calif.) with continuous stirring in a cell incubator for 30 minutes. The mixture was then centrifuged at 1300× g for 5 minutes, and the pellet resuspended in Dulbecco's PBS (GIBCO, Gaithersburg, Md.) and recentrifuged to remove residual enzyme. The cell pellet was resuspended in 5 mL growth media (composition: Dulbecco's modified Eagle's medium supplemented with 10% fetal bovine serum, 100 units/mL penicillin, 100 units/mL streptomycin and […] amphotericin B) and further dissociated by pipetting the suspension through a flame-polished Pasteur pipette and passing it through a polypropylene mesh membrane (Spectrum, Houston, Tex.). The cell density was adjusted to 100,000 cells/mL by resuspension in growth media. Cells were plated in clear-bottomed black 96-well plates (Packard) for membrane potential studies at a density of 20,000 cells/well and maintained in a cell incubator with 90% air:10% CO2 until confluent. Cells were confirmed to be of smooth muscle type by cytoskeletal staining using a monoclonal mouse anti human-α-smooth muscle actin (Biomeda, Foster City, Calif.).
Functional activity at potassium channels was measured by evaluating changes in membrane potential using the bis-oxonol dye DiBAC(4)3 (Molecular Probes) in a 96-well cell-based kinetic assay system, Fluorescent Imaging Plate Reader (FLIPR) (K. S. Schroeder et al., J. Biomed. Screen., v. 1 pp. 7581 (1996)), hereby incorporated by reference. DiBAC(4)3 is an anionic potentiometric probe which partitions between cells and extracellular solution in a membrane potential-dependent manner. With increasing membrane potential (for example, K^+ depolarization), the probe further partitions into the cell; this is measured as an increase in fluorescence due to dye interaction with intracellular lipids and proteins. Conversely, decreasing membrane potential (hyperpolarization by potassium channel openers) evokes a decrease in fluorescence.
Confluent guinea-pig urinary bladder cells cultured in black clear-bottomed 96-well plates were rinsed twice with […] assay buffer (composition, mM: HEPES, 20; NaCl, 120; KCl, 2; CaCl2, 2; MgCl2, 1; glucose, 5; pH 7.4 at 25° C.) containing 5 μM DiBAC(4)3 and incubated with […] of the buffer in a cell incubator for 30 minutes at 37° C. to ensure dye distribution across the membrane. After recording the baseline fluorescence for 5 minutes, the reference or test compounds, prepared at 10 times the concentration in the assay buffer, were added directly to the wells. Changes in fluorescence were monitored for an additional 25 minutes. Hyperpolarization responses were corrected for any background noise and were normalized to the response observed with 10 μM of the reference compound P1075 (assigned as 100%), a potent opener of smooth muscle KATP channels (Quast et al., Mol. Pharmacol., v. 43 pp. 474-481 (1993)).
Routinely, five concentrations of P1075 or test compounds (log or half-log dilutions) were evaluated and the maximal steady-state hyperpolarization values (expressed as % relative to P1075) plotted as a function of concentration. […]

The subject of data set [2] is tissue strips obtained from Landrace pig bladders. The data set is described as follows: Functional potassium channel opening activity in isolated bladder strips (field-stimulated twitch). The note with it: for EC50: amount causing 50% of the agent's maximal response, read-out: ED50 (the source's name). The protocol:
Compounds were evaluated for functional potassium channel opening activity using tissue strips obtained from Landrace pig bladders.
Landrace pig bladders were obtained from female Landrace pigs of 930 kg. Landrace pigs were euthanized with an intraperitoneal injection of pentobarbital solution, Somlethal®, J. A. Webster Inc., Sterling Mass. The entire bladder was removed and immediately placed into Krebs Ringer bicarbonate solution (composition, mM: NaCl, 120; NaHCO3, 20; dextrose, 11; KCl, 4.7; CaCl2, 2.5; MgSO4, 1.5; KH2PO4, 1.2; K2EDTA, 0.01, equilibrated with 5% CO2/95% O2pH 7.4 at 37° C.). Propranolol (0.004 mM) was included in all of the assays to block β-adrenoceptors. The trigonal and dome portions were discarded. Strips 3-5 mm wide and 20 mm long were prepared from the remaining tissue cut in a circular fashion. The mucosal layer was removed. One end was fixed to a stationary glass rod and the other to a Grass FT03 transducer at a basal preload of 1.0 gram. Two parallel platinum electrodes were included in the stationary glass rod to provide field stimulation of 0.05 Hz, 0.5 milli-seconds at 20 volts. This low frequency stimulation produced a stable twitch response of 100-500 centigrams. Tissues were allowed to equilibrate for at least 60 minutes and primed with 80 mM KCl. A control concentration response curve (cumulative) was generated for each tissue using the potassium channel opener P1075 as the control agonist. […] After a 60 minute rinsing period, a concentration response curve (cumulative) was generated for the test agonist in the same fashion as that used for the control agonist P1075. The maximal efficacy of each compound (expressed as % relative to P1075) is reported. The amount of agent necessary to cause 50% of the agent's maximal response (ED50) was calculated using “ALLFIT” (DeLean et al., Am. J. Physiol., 235, E97 (1980)), hereby incorporated by reference. Agonist potencies were also expressed as an index relative to P1075. The index was calculated by dividing the ED50 for P1075 by the ED50 for the test agonist in a given tissue. Each tissue was used for only one test agonist, and the indices obtained from each tissue were averaged to provide an average index of potency.

[3] abbreviates: Sus scrofa, Landrace pig bladder strips.
[4] abbreviates: Sus scrofa, maximal efficacy relative to P1075, Landrace pig bladder strips, field stimulation 0.05 Hz.

On to `CC(C)(Cc1ccccc1)C(NC(=O)c1ccc(Cl)cc1)Nc1c(Nc2cccnc2)c(=O)c1=O` (stereo not drawn) [Example 18], for which the “Maximal Response (% P1075)” value in data set [1] (maximal steady-state hyperpolarization, normalized to 10 μM P1075 (100%), GPB cells) was determined as 97 % P1075. For the same compound, the EC50 stood at 0.51 µM in data set [1] and 17 µM in data set [2] (Landrace pig bladder strips). The Index in data set [2] (ED50 for P1075 divided by ED50 for the test agonist in a given tissue, averaged) came to 0.055. In data set [2] (maximal efficacy relative to P1075, Landrace pig bladder strips, field stimulation 0.05 Hz), the “Efficacy (% P1075)” value is 62 % P1075.
With `CC(C)(C)C(NC(=O)c1ccc(I)cc1)NS(=O)(=O)Nc1cccnc1` (stereo not drawn) [Example 34, N-(2,2-dimethyl-1-{[(3-pyridinylamino)sulfonyl]amino}propyl)-4iodobenzamide], the melting point (in general, the temperature, or range, at which the solid turns liquid) lay within 177 to 178 °C.
Consider `CC(C)(C)C(NC(=O)c1ccc(Cl)cc1)Nc1c(Nc2cccnc2)c(=O)c1=O` (stereo not drawn) [Example 2, 4-chloro-N-(1-{[3,4-dioxo-2-(3-pyridinylamino)-1-cyclobuten-1-yl]amino}-2,2-dimethylpropyl)benzamide], for which the values for the EC50 in data set [1] (Cavia porcellus) and in data set [2] (setting [3]) were 0.16 µM and 6.9 µM, respectively. Besides, the Emax (as a rule, the size of the effect at its maximum, as opposed to the concentration needed) in data set [2] (setting [4]) was 79%.
For `C=CCC(C)(C)C(NC(=O)c1ccc(Cl)cc1)Nc1c(Nc2cccnc2)c(=O)c1=O` (stereo not drawn) [Example 17, 4-chloro-N-(-1-{[3,4-dioxo-2-(3-pyridinylamino)-1-cyclobuten-1-yl]amino}-2,2-dimethyl-4-pentenyl)benzamide], in that order: 0.18 µM, 5.8 µM and 92%.
